We go through 21 molecules from patent publication US12077503B2, “Substituted cyclic amides and their use as herbicides” (FMC CORPORATION, priority 2015, dated 2024).

Read-outs that look alike come from different tables or passages of the source.

Holding throughout (type): in vivo
In assay [1] the test system is pigweed (Amaranthus retroflexus). Briefly: Test A postemergence. Particulars: Amaranthus retroflexus, post-emergence, 240 h; for pest or weed control at 125 g/ha: 125 g ai/ha; for pest or weed control at 500 g/ha: 500 g ai/ha. In short, it runs like this:
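Greenhouse, ~10 d after spray; visual injury vs untreated controls, 0 = no effect, 100 = complete control. Preemergence: directed soil spray over planted seeds. Postemergence: plants 2–10 cm, 1–2 leaf stage. Loam/sand blend. Compound in non-phytotoxic solvent with surfactant.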

The subject of assay [2] is barnyardgrass (Echinochloa crus-galli). The assay is described as follows: Test B flooded paddy test. To be noted: Echinochloa crus-galli, Flood, 250 g ai/ha, read-out: Barnyardgrass plant response rating. In short, it runs like this: (§1)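 Flooding to 3 cm over soil accompanied treatment, which consisted of adding compound to the standing water around 2-leaf plants; depth was then maintained. Visual assessment versus controls followed at 13 to 15 d (scale 0–100, 0 meaning no effect).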

A further assay concerns rice (Oryra sativa). The assay is described as follows: Test B flooded paddy test. Particulars: Oryza sativa, Flood, 250 g ai/ha, read-out: Rice plant response rating. The essentials: as §1
In assay [3] the test system is ducksalad (Heteranthera limosa). Briefly: Test B flooded paddy test. To be noted: Heteranthera limosa, Flood, 250 g ai/ha, read-out: Ducksalad plant response rating. In short, it runs like this: as §1
Assay [4] deals with sedge, umbrella (small-flower umbrella sedge, Cyperus difformis). The assay is described as follows: Test B flooded paddy test. To be noted: Cyperus difformis, Flood, 250 g ai/ha, read-out: Sedge, Umbrella plant response rating. In short, it runs like this:
as §1

Setting [5] is: Postemergence, visual injury after approximately 10 d, 0 to 100 scale where 0 is no effect and 100 is complete control, read-out: Plant response rating, Pigweed.
The mark [6] stands for this setting: scale of 0 to 100 where 0 is no effect and 100 is complete control.
Where [7] appears, read: postemergence, visual injury rating after approximately 10 d, read-out: Pigweed plant response rating (0 to 100 scale, 0 no effect, 100 complete control).
The mark [8] stands for this setting: 0 to 100 scale where 0 is no effect and 100 is complete control.
Setting [9] is: postemergence, visual injury vs untreated controls after approx. 10 d, 0 = no effect, 100 = complete control, read-out: Pigweed plant response rating (0 to 100 scale).
[10] abbreviates: postemergence, 0 to 100 scale, 0 is no effect, 100 is complete control, read-out: Pigweed plant response rating.
[11] abbreviates: postemergence, visual injury on 0 to 100 scale (0 no effect, 100 complete control), approx. 10 d, read-out: Pigweed plant response rating.

On to `CN1C[C@H](c2cc(F)cc(F)c2)[C@@H](C(=O)Nc2ccc(C(F)(F)F)cc2)C1=O` [Compound 968], for which the pest or weed control at 125 g/ha in assay [1] (setting [5]) turned out to be 0%. For the same molecule, the pest or weed control at 250 g/ha came to 0% in assay [2] (setting [6]), 0% in the assay with rice (Oryra sativa) (setting [6]), 30% in assay [3] (setting [6]) and 0% in assay [4] (setting [6]).
Take `Cc1c(F)ccc([C@H]2CNC(=O)[C@@H]2C(=O)Nc2ccccc2C(F)(F)F)c1F` [Compound 831]: in assay [1] (setting [7]), the pest or weed control at 125 g/ha was determined as 0%. In addition, the pest or weed control at 250 g/ha in assay [2] (setting [6]) is 0%; in the assay with rice (Oryra sativa) (setting [6]), 0%; in assay [3] (setting [6]), 70%; in assay [4] (setting [6]) it was 0%.
`O=C1NC[C@H](c2cc(F)c(C(F)(F)F)c(F)c2)[C@H]1C(=O)Nc1ccccc1F` [Compound 837]: in assay [1] (setting [7]), the pest or weed control at 125 g/ha turned out to be 30%. Besides, the pest or weed control at 250 g/ha in assay [2] (setting [6]) worked out at 0%; with rice (Oryra sativa) (setting [6]), 0%; in assay [3] (setting [6]), 70%; in assay [4] (setting [6]), 0%.
Turning to `CN1C[C@H](c2cc(F)cc(F)c2)[C@@H](C(=O)Nc2cc(O)ccc2F)C1=O` [Compound 992], the pest or weed control at 125 g/ha in assay [1] (setting [5]) came to 0%. Besides, the pest or weed control at 250 g/ha (in assay [2] (setting [6]); in the assay with rice (Oryra sativa) (setting [6]); in assay [3] (setting [6]); in assay [4] (setting [8])) was 0% each time.
`CN1C[C@H](c2cccc(COC(F)F)c2)[C@@H](C(=O)Nc2cccc(F)c2F)C1=O` [Compound 873]: the pest or weed control at 125 g/ha in assay [1] (setting [7]) was 30%. The pest or weed control at 250 g/ha was determined as 85% in assay [2] (setting [6]), 0% with rice (Oryra sativa) (setting [6]), 100% in assay [3] (setting [6]) and 50% in assay [4] (setting [6]).
Take `Cc1nc([C@H]2CNC(=O)[C@@H]2C(=O)Nc2cccc(F)c2F)cs1` [Compound 1180]: the pest or weed control at 125 g/ha in assay [1] (setting [9]) worked out at 0%. Also, in assay [1] (setting [10]), the pest or weed control at 500 g/ha was determined as 0%. Besides, the pest or weed control at 250 g/ha in assay [2] (setting [8]) was 0%; in the assay on rice (Oryra sativa) (setting [8]) it was 0%; in assay [3] (setting [8]), 85%; in assay [4] (setting [8]), 0%.
Turning to `CN1C[C@H](c2cccc(C3CC3)c2)[C@@H](C(=O)Nc2cccc(F)c2F)C1=O` [Compound 816], the pest or weed control at 125 g/ha in assay [1] (setting [7]) is 0%. The pest or weed control at 250 g/ha was found to be 55% in assay [2] (setting [6]), 30% with rice (Oryra sativa) (setting [6]), 75% in assay [3] (setting [6]) and 0% in assay [4] (setting [6]).
For `Cc1cc([C@H]2CN(C)C(=O)[C@@H]2C(=O)Nc2ccccc2S(C)(=O)=O)ccc1Br` [Compound 1102], the pest or weed control at 125 g/ha in assay [1] (setting [11]) stood at 0%. In addition, the pest or weed control at 500 g/ha in assay [1] (setting [10]) came out at 0%. Also, the pest or weed control at 250 g/ha in assay [2] (setting [8]) stood at 60%; in the assay on rice (Oryra sativa) (setting [8]), 0%; in assay [3] (setting [8]) it was 85%; in assay [4] (setting [8]), 0%.
In the case of `CN1C[C@H](c2cc(F)cc(F)c2)[C@@H](C(=O)Nc2ccc(C(F)(F)F)nc2)C1=O` [Compound 870], the pest or weed control at 125 g/ha in assay [1] (setting [7]) amounted to 0%. In addition, the pest or weed control at 250 g/ha (in assay [2] (setting [6]); in the assay on rice (Oryra sativa) (setting [6]); in assay [3] (setting [6]); in assay [4] (setting [6])) was 0% throughout.
Turning to `COc1c(F)ccc([C@H]2CN(C)C(=O)[C@@H]2C(=O)Nc2ccccc2S(C)(=O)=O)c1Cl` [Compound 897], the pest or weed control at 125 g/ha in assay [1] (setting [7]) is 0%. Further, the pest or weed control at 250 g/ha amounted to 45% in assay [2] (setting [6]), 0% in the assay with rice (Oryra sativa) (setting [6]), 45% in assay [3] (setting [6]) and 0% in assay [4] (setting [6]).
On to `CN1C[C@H](c2ccc(C(F)(F)F)cc2)[C@](F)(C(=O)Nc2cccc(F)c2F)C1=O` (racemic) [Compound 1152], for which the pest or weed control at 125 g/ha in assay [1] (setting [9]) came to 0%. In assay [1] (setting [10]), the pest or weed control at 500 g/ha is 0%. Moreover, the pest or weed control at 250 g/ha (in assay [2] (setting [8]); with rice (Oryra sativa) (setting [8]); in assay [3] (setting [8]); in assay [4] (setting [8])) was 0% throughout.
On to `CN1C[C@H](c2cc(C(F)(F)F)cs2)[C@@H](C(=O)Nc2ccccc2F)C1=O` [Compound 962], for which the pest or weed control at 125 g/ha in assay [1] (setting [5]) was 0%. In addition, the pest or weed control at 250 g/ha in assay [2] (setting [6]) stood at 60%; with rice (Oryra sativa) (setting [6]), 10%; in assay [3] (setting [6]), 90%; in assay [4] (setting [6]) it was 0%.
In the case of `CN1CC[C@H](c2cccc(Cl)c2)[C@@H](C(=O)Nc2cccc(Cl)c2F)C1=O` [Compound 924], the pest or weed control at 125 g/ha in assay [1] (setting [5]) was found to be 0%. Further, the pest or weed control at 250 g/ha was determined as 50% in assay [2] (setting [6]), 0% in the assay with rice (Oryra sativa) (setting [6]), 70% in assay [3] (setting [6]) and 0% in assay [4] (setting [6]).
Take `CN1C[C@H](c2cc(F)c(F)c(F)c2)[C@@H](C(=O)Nc2ccccc2S(C)(=O)=O)C1=O` [Compound 880]: in assay [1] (setting [7]), the pest or weed control at 125 g/ha was 50%. Besides, the pest or weed control at 250 g/ha in assay [2] (setting [6]) was 60%; in the assay with rice (Oryra sativa) (setting [6]), 0%; in assay [3] (setting [6]) it was 100%; in assay [4] (setting [6]), 0%.
As for `O=C1NC[C@H](c2ccc3c(c2)OCO3)[C@H]1C(=O)Nc1ccc(F)c(F)c1F` [Compound 1027], in assay [1] (setting [11]), the pest or weed control at 125 g/ha was 0%. The pest or weed control at 500 g/ha in assay [1] (postemergence, visual injury, 0 to 100 scale (0 no effect, 100 complete control), approx. 10 d, read-out: Plant response rating, Pigweed) worked out at 0%. The pest or weed control at 250 g/ha in assay [2] (setting [8]) was 40%; with rice (Oryra sativa) (setting [8]) it was 30%; in assay [3] (setting [8]), 100%; in assay [4] (setting [8]) it was 0%.
With `CC(C)COc1cccc([C@H]2CNC(=O)[C@@H]2C(=O)Nc2cccc(F)c2F)c1` [Compound 965], in assay [1] (setting [5]), the pest or weed control at 125 g/ha is 0%. The pest or weed control at 250 g/ha in assay [2] (setting [6]) was 20%; with rice (Oryra sativa) (setting [6]) it was 0%; in assay [3] (setting [6]), 85%; in assay [4] (setting [6]), 0%.
Turning to `CCOc1ccc([C@H]2CN(C)C(=O)[C@@H]2C(=O)Nc2cccc(F)c2F)cc1` [Compound 904], the pest or weed control at 125 g/ha in assay [1] (setting [7]) was 0%. The pest or weed control at 250 g/ha (in assay [2] (setting [6]); in the assay with rice (Oryra sativa) (setting [6]); in assay [3] (setting [6]); in assay [4] (setting [6])) was 0% in each case.
As for `Cc1cc(C)cc([C@H]2CN(C)C(=O)[C@@H]2C(=O)Nc2cccc(F)c2F)c1` [Compound 911], in assay [1] (setting [7]), the pest or weed control at 125 g/ha amounted to 0%. The pest or weed control at 250 g/ha is 80% in assay [2] (setting [6]), 0% in the assay on rice (Oryra sativa) (setting [6]), 75% in assay [3] (setting [6]) and 0% in assay [4] (setting [6]).
As for `COc1ccc([C@H]2CN(C)C(=O)[C@@H]2C(=O)Nc2ccccc2SC)cc1C(F)(F)F` [Compound 991], the pest or weed control at 125 g/ha in assay [1] (setting [5]) was found to be 0%. Besides, the pest or weed control at 250 g/ha was 0% in assay [2] (setting [6]), 15% with rice (Oryra sativa) (setting [6]), 40% in assay [3] (setting [6]) and 0% in assay [4] (setting [8]).
As to `Cc1cc([C@H]2CN(C)C(=O)[C@@H]2C(=O)Nc2ccc(F)c(F)c2F)ccc1Br` [Compound 1101], in assay [1] (setting [11]), the pest or weed control at 125 g/ha is 30%. Also, the pest or weed control at 500 g/ha in assay [1] (setting [10]) came out at 50%. The pest or weed control at 250 g/ha in assay [2] (setting [8]) was determined as 30%; in the assay on rice (Oryra sativa) (setting [8]), 0%; in assay [3] (setting [8]), 60%; in assay [4] (setting [8]), 0%.
On to `O=C1NC[C@H](c2cccc(C(F)(F)F)c2)[C@H]1C(=O)Nc1cccc2c1OC(F)(F)O2` [Compound 827], for which the pest or weed control at 125 g/ha in assay [1] (setting [7]) amounted to 0%. In addition, the pest or weed control at 250 g/ha in assay [2] (setting [6]) was found to be 30%; in the assay with rice (Oryra sativa) (setting [6]) it was 0%; in assay [3] (setting [6]) it was 75%; in assay [4] (setting [6]), 0%.
